Two molecules from BindingDB's records for doi:10.1016/j.vascn.2014.07.002 (University of Oxford, 2014) can be followed below.

The nature of data set [1]: Inhibition of rapid delayed inward rectifying potassium current (IKr) measured using manual patch clamp assay. A general note: In patch-clamp work, channel activity is measured electrically.
Data set [2] addresses Potassium voltage-gated channel subfamily H member 2 (Homo sapiens, UniProt Q12809). The data set can be described thus: Inhibition of rapid delayed inward rectifying potassium current (IKr) measured using manual patch clamp assay.

Potassium voltage-gated channel subfamily H member 2, sequence (Q12809 whole entry): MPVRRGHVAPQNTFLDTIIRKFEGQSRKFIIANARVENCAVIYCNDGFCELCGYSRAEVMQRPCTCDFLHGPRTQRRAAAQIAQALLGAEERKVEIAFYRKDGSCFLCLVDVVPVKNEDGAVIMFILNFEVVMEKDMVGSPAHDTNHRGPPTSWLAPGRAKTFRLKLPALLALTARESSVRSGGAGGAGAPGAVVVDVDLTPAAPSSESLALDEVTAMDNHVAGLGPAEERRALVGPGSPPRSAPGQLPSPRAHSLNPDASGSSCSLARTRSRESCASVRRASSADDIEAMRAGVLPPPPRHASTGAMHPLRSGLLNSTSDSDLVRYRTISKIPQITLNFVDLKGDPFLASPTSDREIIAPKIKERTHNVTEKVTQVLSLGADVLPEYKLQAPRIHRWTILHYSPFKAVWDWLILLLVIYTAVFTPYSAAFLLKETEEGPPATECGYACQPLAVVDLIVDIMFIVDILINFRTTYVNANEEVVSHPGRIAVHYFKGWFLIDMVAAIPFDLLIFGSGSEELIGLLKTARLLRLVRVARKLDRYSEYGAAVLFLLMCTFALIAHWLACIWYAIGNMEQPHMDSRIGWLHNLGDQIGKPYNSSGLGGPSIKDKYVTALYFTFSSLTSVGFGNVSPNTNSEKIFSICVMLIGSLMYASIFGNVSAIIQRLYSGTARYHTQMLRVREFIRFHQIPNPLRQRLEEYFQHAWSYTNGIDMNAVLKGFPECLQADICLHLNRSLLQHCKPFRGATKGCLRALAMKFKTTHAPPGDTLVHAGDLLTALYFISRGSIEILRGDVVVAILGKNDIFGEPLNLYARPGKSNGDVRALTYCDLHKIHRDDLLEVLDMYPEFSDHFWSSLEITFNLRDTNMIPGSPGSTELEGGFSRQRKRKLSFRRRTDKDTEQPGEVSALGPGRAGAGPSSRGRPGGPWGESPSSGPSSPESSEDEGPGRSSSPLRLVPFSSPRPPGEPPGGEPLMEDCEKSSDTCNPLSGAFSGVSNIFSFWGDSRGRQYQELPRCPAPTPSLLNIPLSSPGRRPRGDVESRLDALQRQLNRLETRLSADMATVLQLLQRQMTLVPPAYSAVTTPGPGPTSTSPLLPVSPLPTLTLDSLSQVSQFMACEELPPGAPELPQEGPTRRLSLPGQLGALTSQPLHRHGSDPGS

Usually IC50 stands for the concentration at which inhibition is half-maximal. The low end stands for greater potency, the high end for weaker potency. In the case of `C[C@H]1CN(C[C@H](Cc2ccccc2)C(=O)NCC(=O)O)CC[C@@]1(C)c1cccc(O)c1` [ADL 8-2698], the IC50 in data set [1] is 794 µM.

For the molecule `O=C(O)c1ccc(-n2nc(-c3ccccc3O)nc2-c2ccccc2O)cc1` [CHEBI:49005], in data set [2], half-maximal inhibition (IC50) was put at 3980 µM.
